Laboratory results published in patent publication US6737383B1, “Herbicidal oxadiazolidines” (priority 1999, dated 2004).

Columns and labels:
blackgrass = test: Test B pre/postemergence blackgrass; type: in vivo, Alopecurus myosuroides
Summary of the method: (§1)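 Test chemicals in a non-phytotoxic solvent mixture with surfactant were sprayed preemergence onto planted seeds and postemergence onto plants 2 to 18 cm tall (1- to 4-leaf stage). After twelve to sixteen days in a greenhouse, injury was visually rated against untreated controls from 0 (no effect) to 10 (complete control).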

surinam grass = test: Test B pre/postemergence surinam grass; type: in vivo, Brachiaria decumbens; details: for Plant response rating, B. signalgrass: Postemergence; for B. signalgrass plant response rating: Preemergence
Summary of the method: as §1

cocklebur = test: Test B pre/postemergence cocklebur; type: in vivo, Xanthium strumarium
Summary of the method: as §1

corn = test: Test B pre/postemergence corn; type: in vivo, Zea mays
Summary of the method: as §1

crabgrass = test: Test B pre/postemergence crabgrass; type: in vivo, Digitaria sanguinalis
Summary of the method: as §1

giant foxtail = test: Test B pre/postemergence giant foxtail; type: in vivo, Setaria faberii
Summary of the method: as §1

morningglory = test: Test B pre/postemergence morningglory; type: in vivo, Ipomoea hederacea
Summary of the method: as §1

pigweed = test: Test B pre/postemergence pigweed; type: in vivo, Amaranthus retroflexus
Summary of the method: as §1

rape = test: Test B pre/postemergence rape; type: in vivo, Brassica napus
Summary of the method: as §1

soybean = test: Test B pre/postemergence soybean; type: in vivo, Glycine max
Summary of the method: as §1

sugar beet = test: Test B pre/postemergence sugar beet; type: in vivo, Beta vulgaris
Summary of the method: as §1

velvetleaf = test: Test B pre/postemergence velvetleaf; type: in vivo, Abutilon theophrasti
Summary of the method: as §1

wheat = test: Test B pre/postemergence wheat; type: in vivo, Triticum aestivum
Summary of the method: as §1

wild oat = test: Test B pre/postemergence wild oat; type: in vivo, Avena fatua
Summary of the method: as §1

purple nutsedge = test: Test B pre/postemergence purple nutsedge; type: in vivo, Cyperus rotundus
Summary of the method: as §1

rice = test: Test B flood test rice; type: in vivo, Oryza sativa
Summary of the method: (§2)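 Flood test on plants grown to the 2-leaf stage; treated plants kept in greenhouse twelve to sixteen days, then visually rated against controls on a 0 (no effect) to 10 (complete control) scale.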

smallflower flatsedge = test: Test B flood test smallflower flatsedge; type: in vivo, Cyperus difformis
Summary of the method: as §2

duck salad = test: Test B flood test duck salad; type: in vivo, Heteranthera limosa
Summary of the method: as §2

bamyardgrass = test: Test B flood test barnyardgrass; type: in vivo, Echinochloa crus-galli
Summary of the method: as §2

[1] = Postemergence, Rate 62 g/ha, scale 0 to 10, 0 is no effect, 10 is complete control
[2] = Postemergence, Rate 125 g/ha, scale of 0 to 10 where 0 is no effect and 10 is complete control
[3] = Postemergence, Rate 250 g/ha, scale of 0 to 10, 0 is no effect, 10 is complete control
[4] = Postemergence, Rate 500 g/ha, scale of 0 to 10 where 0 is no effect and 10 is complete control
[5] = Preemergence, Rate 62 g/ha, scale 0 to 10 (0 no effect, 10 complete control)
[6] = Preemergence, Rate 125 g/ha, scale of 0 to 10 where 0 is no effect and 10 is complete control
[7] = Preemergence, Rate 500 g/ha, scale of 0 to 10 where 0 is no effect and 10 is complete control
[8] = Rate 125 g/ha, scale of 0 to 10 where 0 is no effect and 10 is complete control
[9] = Rate 500 g/ha, scale of 0 to 10 where 0 is no effect and 10 is complete control
[10] = Rate 62 g/ha, flood test species, Pre-emergence, visual evaluation after twelve to sixteen days
[11] = Rate 125 g/ha, under heading Pre-emergence, flood test species, visual evaluation after twelve to sixteen days
[12] = Rate 250 g/ha, Pre-emergence (flood test species), scale 0 to 10, 0 is no effect, 10 is complete control
[13] = Rate 500 g/ha, Pre-emergence section of Table B, 0 to 10 scale (0 no effect, 10 complete control)

SMILES: C=C(Cl)Cn1c(=O)on(C(=O)N(c2ccccc2)C(C)C)c1=O [Compound 608]
- Plant response rating, Blackgrass (blackgrass; [1]): 4
- Plant response rating, Blackgrass (blackgrass; [2]): 6
- Blackgrass plant response rating (blackgrass; [3]): 8
- Plant response rating, Blackgrass (blackgrass; [4]): 9
- Blackgrass plant response rating (blackgrass; [5]): 2
- Blackgrass plant response rating (blackgrass; [6]): 5
- Blackgrass plant response rating (0 to 10 scale) (blackgrass; Preemergence, Rate 250 g/ha): 7
- Blackgrass plant response rating (blackgrass; [7]): 9
- Plant response rating, B. signalgrass (surinam grass; Rate 62 g/ha, scale 0 to 10, 0 is no effect, 10 is complete control): 3
- Plant response rating, B. signalgrass (surinam grass; [8]): 10
- Plant response rating, B. signalgrass (surinam grass; [9]): 10
- B. signalgrass plant response rating (surinam grass; Rate 62 g/ha, scale 0 to 10 (0 no effect, 10 complete control)): 1
- B. signalgrass plant response rating (surinam grass; [8]): 10
- B. signalgrass plant response rating (surinam grass; [9]): 10
- Plant response rating, Cocklebur (cocklebur; [1]): 0
- Plant response rating, Cocklebur (cocklebur; [2]): 0
- Cocklebur plant response rating (cocklebur; [3]): 0
- Plant response rating, Cocklebur (cocklebur; [4]): 0
- Cocklebur plant response rating (cocklebur; [5]): 0
- Cocklebur plant response rating (cocklebur; [6]): 0
- Cocklebur plant response rating (0 to 10 scale) (cocklebur; Preemergence, Rate 250 g/ha): 0
- Plant response rating, Cocklebur (cocklebur; [7]): 0
- Plant response rating, Corn (corn; [1]): 0
- Plant response rating, Corn (corn; [2]): 0
- Corn plant response rating (corn; [3]): 0
- Plant response rating, Corn (corn; [4]): 0
- Corn plant response rating (corn; [5]): 0
- Corn plant response rating (corn; [6]): 0
- Corn plant response rating (0 to 10 scale) (corn; Preemergence, Rate 250 g/ha): 0
- Plant response rating, Corn (corn; [7]): 1
- Plant response rating, Crabgrass (crabgrass; [1]): 3
- Plant response rating, Crabgrass (crabgrass; [2]): 3
- Crabgrass plant response rating (crabgrass; [3]): 7
- Plant response rating, Crabgrass (crabgrass; [4]): 7
- Crabgrass plant response rating (crabgrass; [5]): 7
- Crabgrass plant response rating (crabgrass; [6]): 9
- Plant response rating, Crabgrass (crabgrass; [7]): 10
- Plant response rating, Giant foxtail (giant foxtail; [1]): 5
- Plant response rating, Giant foxtail (giant foxtail; [2]): 7
- Giant foxtail plant response rating (giant foxtail; [3]): 7
- Plant response rating, Giant foxtail (giant foxtail; [4]): 9
- Giant foxtail plant response rating (giant foxtail; [5]): 9
- Giant foxtail plant response rating (giant foxtail; [6]): 10
- Plant response rating, Giant foxtail (giant foxtail; [7]): 10
- Plant response rating, Morningglory (morningglory; [1]): 0
- Plant response rating, Morningglory (morningglory; [2]): 7
- Morningglory plant response rating (morningglory; [3]): 8
- Plant response rating, Morningglory (morningglory; [4]): 10
- Morningglory plant response rating (morningglory; [5]): 0
- Morningglory plant response rating (morningglory; [6]): 0
- Plant response rating, Morningglory (morningglory; [7]): 4
- Plant response rating, Redroot pigweed (pigweed; [1]): 3
- Plant response rating, Redroot pigweed (pigweed; [2]): 5
- Redroot pigweed plant response rating (pigweed; [3]): 7
- Plant response rating, Redroot pigweed (pigweed; [4]): 8
- Redroot pigweed plant response rating (pigweed; [5]): 5
- Redroot pigweed plant response rating (pigweed; [6]): 5
- Plant response rating, Redroot pigweed (pigweed; [7]): 7
- Plant response rating, Rape (rape; [1]): 1
- Plant response rating, Rape (rape; [2]): 5
- Rape plant response rating (rape; [3]): 5
- Plant response rating, Rape (rape; [4]): 7
- Rape plant response rating (rape; [5]): 1
- Rape plant response rating (rape; [6]): 5
- Plant response rating, Rape (rape; [7]): 7
- Plant response rating, Soybean (soybean; [1]): 3
- Plant response rating, Soybean (soybean; [2]): 4
- Soybean plant response rating (soybean; [3]): 4
- Soybean plant response rating (soybean; [5]): 0
- Soybean plant response rating (soybean; [6]): 0
- Plant response rating, Soybean (soybean; [7]): 4
- Plant response rating, Sugarbeets (sugar beet; [1]): 0
- Plant response rating, Sugarbeets (sugar beet; [2]): 5
- Sugarbeets plant response rating (sugar beet; [3]): 5
- Plant response rating, Sugarbeets (sugar beet; [4]): 5
- Sugarbeets plant response rating (sugar beet; [5]): 0
- Sugarbeets plant response rating (sugar beet; [6]): 0
- Plant response rating, Sugarbeets (sugar beet; [7]): 4
- Plant response rating, Velvetleaf (velvetleaf; [1]): 0
- Plant response rating, Velvetleaf (velvetleaf; [2]): 0
- Velvetleaf plant response rating (velvetleaf; [3]): 4
- Plant response rating, Velvetleaf (velvetleaf; [4]): 6
- Velvetleaf plant response rating (velvetleaf; [5]): 0
- Velvetleaf plant response rating (velvetleaf; [6]): 4
- Plant response rating, Velvetleaf (velvetleaf; [7]): 7
- Plant response rating, Wheat (wheat; [1]): 0
- Wheat plant response rating (wheat; [3]): 0
- Plant response rating, Wheat (wheat; [4]): 0
- Wheat plant response rating (wheat; [5]): 0
- Wheat plant response rating (wheat; [6]): 0
- Plant response rating, Wheat (wheat; [7]): 0
- Plant response rating, Wild oats (wild oat; [1]): 3
- Plant response rating, Wild oats (wild oat; [2]): 4
- Wild oats plant response rating (wild oat; [3]): 5
- Plant response rating, Wild oats (wild oat; [4]): 6
- Wild oats plant response rating (wild oat; [5]): 0
- Wild oats plant response rating (wild oat; [6]): 3
- Plant response rating, Wild oats (wild oat; [7]): 6
- Plant response rating, Nutsedge (purple nutsedge; [1]): 0
- Plant response rating, Nutsedge (purple nutsedge; [2]): 0
- Nutsedge plant response rating (purple nutsedge; [3]): 0
- Nutsedge plant response rating (purple nutsedge; [6]): 0
- Plant response rating, Nutsedge (purple nutsedge; [7]): 0
- Plant response rating, Rice (0 to 10 scale, 0 is no effect, 10 is complete control) (rice; [10]): 0
- Rice plant response rating (0 to 10 scale, 0 is no effect, 10 is complete control) (rice; [11]): 0
- Rice plant response rating (rice; [12]): 0
- Rice plant response rating (rice; [13]): 0
- Plant response rating, S. Flatsedge (0 to 10 scale, 0 is no effect, 10 is complete control) (smallflower flatsedge; [10]): 0
- S. Flatsedge plant response rating (0 to 10 scale, 0 is no effect, 10 is complete control) (smallflower flatsedge; [11]): 0
- S. Flatsedge plant response rating (smallflower flatsedge; [12]): 0
- S. Flatsedge plant response rating (smallflower flatsedge; [13]): 0
- Plant response rating, Ducksalad (0 to 10 scale, 0 is no effect, 10 is complete control) (duck salad; [10]): 0
- Ducksalad plant response rating (0 to 10 scale, 0 is no effect, 10 is complete control) (duck salad; [11]): 0
- Ducksalad plant response rating (duck salad; [12]): 0
- Ducksalad plant response rating (duck salad; [13]): 0
- Plant response rating, Barnyardgrass (0 to 10 scale, 0 is no effect, 10 is complete control) (bamyardgrass; [10]): 0
- Barnyardgrass plant response rating (0 to 10 scale, 0 is no effect, 10 is complete control) (bamyardgrass; [11]): 0
- Barnyardgrass plant response rating (bamyardgrass; [12]): 0
- Barnyardgrass plant response rating (bamyardgrass; [13]): 0
